The text below walks through data of ChEMBL document CHEMBL1157536, “Improvement of meta-tetra(hydroxyphenyl)chlorin-like photosensitizer selectivity with folate-based targeted delivery. synthesis and in vivo delivery studies” (J Med Chem, 2008).

Holding throughout (details): in vivo
A short description of data set [1]: Ratio of drug uptake in tumor to skin in folate receptor deficient HT29 cells xenografted athymic Swiss nude mouse with folate diet assessed as fluorescence accumulation by UV-visible spectrophotometer. It is filed as ADME, cell-based, HT-29.
Data set [2] is described as follows: Ratio of drug uptake in tumor to skin in human KB cells expressing folate receptor xenografted athymic Swiss nude mouse with folate diet assessed as fluorescence accumulation by UV-visible spectrophotometer. It is filed as ADME, cell-based.
Data set [3] in a line: Ratio of drug uptake in tumor to skin in human KB cells expressing folate receptor xenografted athymic Swiss nude mouse with folate free diet assessed as fluorescence accumulation by UV-visible spectrophotometer. It is filed as ADME, cell-based. For orientation: In xenograft studies the graft and the host belong to different species.
The nature of data set [4]: Ratio of drug uptake in tumor to skin in folate receptor deficient HT29 cells xenografted athymic Swiss nude mouse with folate free diet assessed as fluorescence accumulation by UV-visible spectrophotometer. Type of data set: ADME, cell-based, HT-29.

As for `Nc1nc(O)c2nc(CNc3ccc(C(=O)NC(CCC(=O)NCCOCCOCCNC(=O)c4ccc(-c5c6nc(c(-c7cccc(O)c7)c7ccc([nH]7)c(-c7cccc(O)c7)c7nc(c(-c8cccc(O)c8)c8ccc5[nH]8)C=C7)CC6)cc4)C(=O)O)cc3)cnc2n1` (stereo not drawn), the Ratio in data set [1] is 2.1; in data set [2] it was 1.9; in data set [3], 5; in data set [4] it was 1.

In the case of `O=C(O)c1ccc(-c2c3nc(c(-c4cccc(O)c4)c4ccc([nH]4)c(-c4cccc(O)c4)c4nc(c(-c5cccc(O)c5)c5ccc2[nH]5)C=C4)CC3)cc1`, the Ratio in data set [1] is on record as 1.1; in data set [2], 2.8; in data set [3] it was 2.1; in data set [4], 3.7.
